What all share (assay type): biochemical
The target of test [1] is T1, PfMIF (Plasmodium falciparum, UniProt Q8I5C5). Nature of the test: biochemical. Particulars: for PfMIF tautomerase inhibitory activity (active / inactive): result in words.
The target in another test is T2, huMIF (Homo sapiens, UniProt P14174).
T2 sequence (P14174 2-115 limits assumed): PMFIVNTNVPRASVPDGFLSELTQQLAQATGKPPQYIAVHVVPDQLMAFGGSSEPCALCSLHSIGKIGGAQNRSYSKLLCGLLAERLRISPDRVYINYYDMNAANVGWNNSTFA
Nature of the test: Michaelis-Menten kinetics of 4-HPP tautomerization by huMIF.

Test [2] deals with T1, PfMIF. Nature of the test: Michaelis-Menten kinetics of 4-HPP tautomerization by PfMIF.

In the case of `COc1ccc(-c2cc(Oc3cc(C)cc(OC)c3)cc(C)n2)cc1` [Compound 26k], the Ki (in general, a dissociation constant, usually derived from enzyme kinetics or from competition with a known ligand) on PfMIF [1] is roughly 40 nM.

In the case of `Oc1cccc(Oc2ccc(-c3cccc(O)c3)nc2)c1` [Compound 24d], the “PfMIF tautomerase inhibitory activity (active / inactive)” value on PfMIF [1] is “active”.

Take `COc1cccc(Oc2cc(C)nc(N3CCOCC3)c2)c1` [Compound 25h]: the Ki on PfMIF [1] was roughly 40 nM.

With `Oc1ccc(-c2ccc(Oc3cccc(O)c3)cn2)cc1` [Compound 24e], the “PfMIF tautomerase inhibitory activity (active / inactive)” value on PfMIF [1] is “active”.

For `Cc1cc(Oc2cccc(O)c2)nc(-c2ccccc2)n1` [Compound 20], the “times less potent than 25h” value on PfMIF [1] (ratio of PfMIF Ki values) is listed as “more than 400”. Moreover, the “PfMIF tautomerase inhibitory activity (active / inactive)” value on PfMIF [1] was “active”.

As to `O=C(O)C(=O)Cc1ccc(O)cc1` [Compound 4-HPP, 4-hydroxyphenylpyruvate], the Km (commonly the concentration of substrate that gives half-maximal velocity) on huMIF (enolization) was 1140 ± 216 µM; at huMIF (ketonization), 192 ± 47 µM; on PfMIF [2] (enolization) it was 675 ± 46.9 µM; at PfMIF [2] (ketonization), 187 ± 50.6 µM. Further, the kcat – broadly, the number of substrate molecules converted per active site and unit of time at saturation – on huMIF (enolization) was found to be 208.3 ± 19.3 s⁻¹; at huMIF (ketonization), 86.62 ± 11.7 s⁻¹; on PfMIF [2] (enolization) it was 17.98 ± 0.7 s⁻¹; at PfMIF [2] (ketonization), 32.90 ± 5.3 s⁻¹.

As for `COc1cccc(Oc2ccnc(N3CCOCC3)c2)c1` [Compound 23], the “PfMIF tautomerase inhibitory activity (active / inactive)” value on PfMIF [1] was “active”.

`COc1cc(C)cc(Oc2cc(C)nc(N3CCOCC3)c2)c1` [Compound 25f] showed a Ki at PfMIF [1] of 1000 nM.

As for `N#Cc1cccc(Oc2ccc(-c3cccc(O)c3)nc2)c1` [Compound 24j], on PfMIF [1] (ratio of PfMIF Ki values), the “times more potent than the 3-hydroxyl analogue 24d” value is reported as “roughly 20”.

These data come from article PMC3509768 (Journal of medicinal chemistry, 2012).
